From patent US10023708B2, “Method of producing a delivery device” (PTT HOLDING APS, priority 2011, dated 2018)
One block for each compound: values may come before it.

Legend:
[1] = Loading of Ceragenin CSA-13 into IPN discs and its release; conditions: IPN discs about 20% PHEMA loaded in EtOH + CO2
Procedure: 6 IPN discs (010 mm, thickness 1-2 mm) obtained from Example 1 and with about 20% PHEMA (total mass about 1.3266 g) was loaded with about 500 mg Ceragenin CSA-13. The loading solvent was 2.00 ml 99.8% EtOH supplied by Merck (Germany) and N48 CO2 (supplied by Air Liquid Denmark A/S (Denmark)). The Ceragenin CSA-13 was initially dissolved in the 2.00 ml 99.8% EtOH and injected into a reactor of 16 ml comprising the discs. The pressure was raised to about 300 bars by injecting CO2 and the temperature was raised to about 75° C. The discs were treated at this pressure and temperature under stirring (1100 rpm) for 21 hours and 50 minutes, where after the pressure was reduced, the discs were withdrawn and allowed to cool down.

[2] = Release of miconazole nitrate from loaded IPN discs versus PDMS discs; assay type: physicochemical; conditions: 75° C., 2 hours
Procedure: a) 10 PDMS (Polydimethylsiloxane) (silpuran 6000/40 supplied by Wacker) discs within the same mass range were used per high pressure vessel for loading drug into PDMS. […] The reactors were then coupled to a scCO2 system. scCO2 was applied at 350 bars until the pressure inside the reactors also reached 350 bars. The pressure remained at 350 bars throughout the procedure. The reaction was left for equilibration for 2 hours. d) The pressure was released, and the discs loaded with miconazole nitrate were gently cleaned with ethanol, and stored protected from light. a) 10 PDMS (Polydimethylsiloxane) discs within the same mass range were used per high pressure vessel for loading drug into PDMS. […] The reactors were then coupled to a scCO2 system. scCO2 was applied at 350 bars until the pressure inside the reactors also reached 350 bars. This pressure was maintained throughout the procedure. The reaction was left for equilibration for 2 hours. d) The pressure was released, and the discs loaded with miconazole nitrate were gently cleaned with ethanol, and stored protected from light.

[3] = Determination of work of adhesion Wsc between chemical compound and first polymer; assay type: physicochemical
Description: (§1) The “work of adhesion” between two dissimilar materials is a measure of the energy required to separate the two dissimilar materials from each other. The work of adhesion is indicated with Wxy, wherein x and y respectively are the two dissimilar materials in question. Wxy is herein determined in joule per square meter of contact area of the x and y material to be separated (J/m^2). The contact area of the second polymer and the chemical component is proportional to the amount of a given chemical component and accordingly the Whc value could also be determined as J/mol chemical component. Work of adhesion (Whc) between the second polymer (h) and the chemical component (c) is determined according to the formula: Whc=γhn+γcn−γch, wherein γhn is the interfacial tension between h and n, γcn is the interfacial tension between c and n, and γch is the interfacial tension between c and h, where h=second polymer, n=normal saline and c=chemical component. The respective values of interfacial tension can be determined by any well known method or they can be calculated. Interfacial tensions can be determined from surface tensions of the individual compound, which can be measured or estimated from e.g. HSP which can be measured or estimated from group contribution calculations based on the chemical structure of the individual compound in question. […] At 1 bar and 25° C. the respective work of adhesion between sulfamethizole and the two polymers PDMS and PHEMA of the IPN of Example 1 was determined with respectively EtOH and water as loading solvents. Work of adhesion between sulfamethizole and the two polymers PDMS and PHEMA of the IPN of Example 1 was determined with varying volume fractions of EtOH in a loading solvent of EtOH and scCO2. The determination was determined at 300 bars and 75° C.

[4] = Determination of work of adhesion Whc between chemical compound and second polymer; assay type: physicochemical
Description: as §1

[5] = Release of sulfamethizole from loaded IPN discs soaked in phosphate buffer; assay type: physicochemical; conditions: soaked in phosphate buffer solution at pH 4.5 over a period of about 14 days
Procedure: 2.5 g sulfamethizole (Unikem) was mixed with 60 ml sodium thiosulfate solution (12 ml 0.1 M was diluted to 60 ml using deionized water).
Drug loading was performed by placing 10 discs obtained from Example 1 in a 16 ml reactor. 2.00 ml of the above sulfamethizole mixture and 2.00 ml 99.8% EtOH supplied by Merck (Germany) was fed to the reactor. The discs were kept under stirring during the treatment time. The pressure in the reactor was initially raised to about 100 bars and with a temperature of about 44° C. Thereafter the temperature was raised to 75° C. and the pressure increased to 300 bars with CO2 (N48 CO2 supplied by Air Liquid Denmark A/S).

[6] = 1 bar, 25° C., loading solvent EtOH
[7] = 1 bar, 25° C., loading solvent Water
[8] = 300 bars, 75° C., volume fractions EtOH 0.0000 / scCO2 1.0000
[9] = 300 bars, 75° C., volume fractions EtOH 0.0625 / scCO2 0.9375
[10] = 300 bars, 75° C., volume fractions EtOH 0.1250 / scCO2 0.8750
[11] = 300 bars, 75° C., volume fractions EtOH 0.1875 / scCO2 0.8125
[12] = 300 bars, 75° C., volume fractions EtOH 0.2500 / scCO2 0.7500
[13] = 300 bars, 75° C., volume fractions EtOH 0.3125 / scCO2 0.6875
[14] = 300 bars, 75° C., volume fractions EtOH 0.3750 / scCO2 0.6250
[15] = 300 bars, 75° C., volume fractions EtOH 0.4375 / scCO2 0.5625
[16] = 300 bars, 75° C., volume fractions EtOH 0.5000 / scCO2 0.5000
[17] = 300 bars, 75° C., volume fractions EtOH 0.5625 / scCO2 0.4375
[18] = 300 bars, 75° C., volume fractions EtOH 0.6250 / scCO2 0.3750
[19] = 300 bars, 75° C., volume fractions EtOH 0.6875 / scCO2 0.3125
[20] = 300 bars, 75° C., volume fractions EtOH 0.7500 / scCO2 0.2500
[21] = 300 bars, 75° C., volume fractions EtOH 0.8125 / scCO2 0.1875
[22] = 300 bars, 75° C., volume fractions EtOH 0.8750 / scCO2 0.1250
[23] = 300 bars, 75° C., volume fractions EtOH 0.9375 / scCO2 0.0625
[24] = 300 bars, 75° C., volume fractions EtOH 1.0000 / scCO2 0.0000

SMILES: CCCCCCCCNCCC[C@@H](C)[C@H]1CC[C@H]2[C@@H]3[C@H](OCCCN)C[C@@H]4C[C@H](OCCCN)CC[C@]4(C)[C@H]3C[C@H](OCCCN)[C@]12C [Ceragenin CSA-13]
release from the delivery device, microbiological effect [1]: can be released in sufficient amounts to provide a significant microbiological effect

amount releasable from the IPN discs compared with the PDMS discs ([2]; Test 1: loaded using scCO2, 350 bars): much higher | amount releasable from the IPN discs compared with the PDMS discs ([2]; Test 2: loaded using scCO2 and methanol, 350 bars): much higher
SMILES: Clc1ccc(COC(Cn2ccnc2)c2ccc(Cl)cc2Cl)c(Cl)c1 (stereo not drawn) [miconazole nitrate]

Work of adhesion Wsc s = PDMS c = sulfamethizole [3, 6]: 6.3434 J/m^2 | Work of adhesion Wsc s = PDMS c = sulfamethizole [3, 7]: 57.7309 J/m^2 | Work of adhesion Wsc s = PDMS c = sulfamethizole [3, 8]: 14.1969 J/m^2 | Work of adhesion Wsc s = PDMS c = sulfamethizole [3, 9]: 11.2585 J/m^2 | Work of adhesion Wsc s = PDMS c = sulfamethizole [3, 10]: 8.714 J/m^2 | Work of adhesion Wsc s = PDMS c = sulfamethizole [3, 11]: 6.5641 J/m^2 | Work of adhesion Wsc s = PDMS c = sulfamethizole [3, 12]: 4.8092 J/m^2 | Work of adhesion Wsc s = PDMS c = sulfamethizole [3, 13]: 3.4498 J/m^2 | Work of adhesion Wsc s = PDMS c = sulfamethizole [3, 14]: 2.4864 J/m^2 | Work of adhesion Wsc s = PDMS c = sulfamethizole [3, 15]: 1.9195 J/m^2 | Work of adhesion Wsc s = PDMS c = sulfamethizole [3, 16]: 1.7497 J/m^2 | Work of adhesion Wsc s = PDMS c = sulfamethizole [3, 17]: 1.9773 J/m^2 | Work of adhesion Wsc s = PDMS c = sulfamethizole [3, 18]: 2.6029 J/m^2 | Work of adhesion Wsc s = PDMS c = sulfamethizole [3, 19]: 3.6271 J/m^2 | Work of adhesion Wsc s = PDMS c = sulfamethizole [3, 20]: 5.0502 J/m^2 | Work of adhesion Wsc s = PDMS c = sulfamethizole [3, 21]: 6.8727 J/m^2 | Work of adhesion Wsc s = PDMS c = sulfamethizole [3, 22]: 9.0953 J/m^2 | Work of adhesion Wsc s = PDMS c = sulfamethizole [3, 23]: 11.7183 J/m^2 | Work of adhesion Wsc s = PDMS c = sulfamethizole [3, 24]: 14.7422 J/m^2 | Work of adhesion Whc h = PHEMA c = sulfamethizole [4, 6]: 3.8908 J/m^2 | Work of adhesion Whc h = PHEMA c = sulfamethizole [4, 7]: 38.3326 J/m^2 | Work of adhesion Whc h = PHEMA c = sulfamethizole [4, 8]: 29.8588 J/m^2 | Work of adhesion Whc h = PHEMA c = sulfamethizole [4, 9]: 25.3418 J/m^2 | Work of adhesion Whc h = PHEMA c = sulfamethizole [4, 10]: 21.2182 J/m^2 | Work of adhesion Whc h = PHEMA c = sulfamethizole [4, 11]: 17.4885 J/m^2 | Work of adhesion Whc h = PHEMA c = sulfamethizole [4, 12]: 14.1531 J/m^2 | Work of adhesion Whc h = PHEMA c = sulfamethizole [4, 13]: 11.2126 J/m^2 | Work of adhesion Whc h = PHEMA c = sulfamethizole [4, 14]: 8.6675 J/m^2 | Work of adhesion Whc h = PHEMA c = sulfamethizole [4, 15]: 6.5181 J/m^2 | Work of adhesion Whc h = PHEMA c = sulfamethizole [4, 16]: 4.7652 J/m^2 | Work of adhesion Whc h = PHEMA c = sulfamethizole [4, 17]: 3.4091 J/m^2 | Work of adhesion Whc h = PHEMA c = sulfamethizole [4, 18]: 2.4503 J/m^2 | Work of adhesion Whc h = PHEMA c = sulfamethizole [4, 19]: 1.8894 J/m^2 | Work of adhesion Whc h = PHEMA c = sulfamethizole [4, 20]: 1.7267 J/m^2 | Work of adhesion Whc h = PHEMA c = sulfamethizole [4, 21]: 1.9629 J/m^2 | Work of adhesion Whc h = PHEMA c = sulfamethizole [4, 22]: 2.5985 J/m^2 | Work of adhesion Whc h = PHEMA c = sulfamethizole [4, 23]: 3.6338 J/m^2 | Work of adhesion Whc h = PHEMA c = sulfamethizole [4, 24]: 5.0694 J/m^2 | amount of loaded compound released from the discs [5]: the major amount
SMILES: Cc1nnc(NS(=O)(=O)c2ccc(N)cc2)s1 [sulfamethizole]
